The values below come from patent publication US20260042755A1, “GPR6 INVERSE AGONISTS” (MapLight Therapeutics, Inc., priority 2022, published 2026).

The target in one assay is T1, GPR6 (Homo sapiens, UniProt P46095).
T1 construct: expressed in transfected cells; host or cells: CHO cells
The experiment in a line: GPR6 antagonist functional cAMP assay (LANCE Ultra cAMP TR-FRET, CHO cells stably expressing GPR6). Particulars: procedure of Example 24. Type of assay: cell-based. The essentials: (§1)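 Read-out was TR-FRET cAMP signal at 665 nm after 1 h at room temperature, following 45 min compound exposure at 37 °C. Assay buffer contained 0.1% BSA and 150 μM Ro 20-1724. Antagonist IC50s were fitted with a 4-parameter logistic against DMSO and reference controls.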

The target in a further assay is T2, GPR3 (Homo sapiens, UniProt P46089).
T2 construct: expressed in transfected cells; host or cells: CHO cells
T2 sequence (P46089 whole entry, species assumed): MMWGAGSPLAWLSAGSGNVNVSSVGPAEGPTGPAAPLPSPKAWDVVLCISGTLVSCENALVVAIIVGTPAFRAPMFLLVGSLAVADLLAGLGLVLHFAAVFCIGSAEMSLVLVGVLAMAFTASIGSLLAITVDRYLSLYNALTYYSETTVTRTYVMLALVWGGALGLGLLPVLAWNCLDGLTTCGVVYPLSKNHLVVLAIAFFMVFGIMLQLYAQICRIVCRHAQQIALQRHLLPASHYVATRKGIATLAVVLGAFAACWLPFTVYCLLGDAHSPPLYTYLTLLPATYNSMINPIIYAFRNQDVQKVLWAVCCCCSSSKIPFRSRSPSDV
The experiment in a line: GPR3 antagonist functional cAMP assay (LANCE Ultra cAMP TR-FRET, CHO cells stably expressing GPR3). Type of assay: cell-based. Particulars: procedure of Example 24. The essentials: as §1

pIC50: −log10 of the molar value.

T1 sequence (P46095 whole entry): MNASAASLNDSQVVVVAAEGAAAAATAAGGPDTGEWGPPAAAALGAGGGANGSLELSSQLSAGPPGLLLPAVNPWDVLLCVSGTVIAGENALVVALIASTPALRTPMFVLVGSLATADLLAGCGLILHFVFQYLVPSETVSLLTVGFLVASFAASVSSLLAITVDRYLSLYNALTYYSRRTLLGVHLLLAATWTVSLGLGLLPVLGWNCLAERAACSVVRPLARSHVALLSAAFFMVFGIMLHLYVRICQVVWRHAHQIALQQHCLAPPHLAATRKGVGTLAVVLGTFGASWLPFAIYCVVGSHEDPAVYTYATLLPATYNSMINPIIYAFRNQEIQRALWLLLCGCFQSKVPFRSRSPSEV

Take `CCn1cc(-c2nc3cnc(N)cc3nc2N2CCC(Oc3ccc(F)cc3F)CC2)cn1` [Compound 294, 2-[4-(2,4-difluorophenoxy)piperidin-1-yl]-3-(1-ethyl-1H-pyrazol-4-yl)pyrido[3,4-b]pyrazin-7-amine]: the negative logarithm of the IC50 (pIC50) was above 7.00 at GPR6 and 4.52 to 6.00 on GPR3.
The like results for `CCn1cc(-c2nc3cnccc3nc2N2CCC(Oc3cc(Cl)ccc3F)CC2)cn1` [Compound 295, 4-(5-chloro-2-fluorophenoxy)-1-[3-(1-ethyl-1H-pyrazol-4-yl)pyrido[3,4-b]pyrazin-2-yl]piperidine] were, in that order, above 7.00 and 4.52 to 6.00.
As to `CC(=O)Nc1cc2nc(N3CCC(Oc4ccc(F)cc4F)CC3)c(-c3cnn(C)c3)nc2cn1` [Compound 296, N-{2-[4-(2,4-difluorophenoxy)piperidin-1-yl]-3-(1-methyl-1H-pyrazol-4-yl)pyrido[3,4-b]pyrazin-7-yl}acetamide], the pIC50 at GPR6 and on GPR3 was 4.52 to 6.00 throughout.
As for `CC(=O)Nc1cc2nc(N3CCN(Cc4ccc(F)cc4F)CC3)c(-c3cnn(C)c3)nc2cn1` [Compound 297, N-(2-{4-[(2,4-difluorophenyl)methyl]piperazin-1-yl}-3-(1-methyl-1H-pyrazol-4-yl)pyrido[3,4-b]pyrazin-7-yl)acetamide], the pIC50 on GPR6 and on GPR3 was 4.52 to 6.00 in each case.
As to `CC(C)n1cc(-c2nc3cnc(C(O)C(C)(C)O)cc3nc2N2CCN(Cc3ccc(F)cc3F)CC2)cn1` (stereo not drawn) [Compound 298, 1-(2-{4-[(2,4-difluorophenyl)methyl]piperazin-1-yl}-3-[1-(propan-2-yl)-1H-pyrazol-4-yl]pyrido[3,4-b]pyrazin-7-yl)-2-methylpropane-1,2-diol], the pIC50 against GPR6 is 6.00 to 7.00; against GPR3, 4.52 to 6.00.
Taken in the same sequence, the figures for `CCOC(=O)N1CCc2nc(N3CCC(Oc4ccc(F)cc4F)CC3)c(-c3cnn(CC)c3)nc2C1` [Compound 299, ethyl 2-[4-(2,4-difluorophenoxy)piperidin-1-yl]-3-(1-ethyl-1H-pyrazol-4-yl)-5H,6H,7H,8H-pyrido[3,4-b]pyrazine-6-carboxylate] were above 7.00 and 4.52 to 6.00.
With `CCn1cc(-c2nc3c(nc2N2CCC(Oc4ccc(F)cc4F)CC2)CCN(C(=O)N(C)C)C3)cn1` [Compound 300, 2-[4-(2,4-difluorophenoxy)piperidin-1-yl]-3-(1-ethyl-1H-pyrazol-4-yl)-N,N-dimethyl-5H,6H,7H,8H-pyrido[3,4-b]pyrazine-6-carboxamide], the results for the pIC50 against GPR6 and at GPR3 were above 7.00 and 4.52 to 6.00, respectively.
With `Fc1ccc(OC2CC=C(c3nc4ccncc4nc3-c3ncco3)CC2)c(F)c1` (stereo not drawn) [Compound 301, 2-{2-[4-(2,4-difluorophenoxy)cyclohex-1-en-1-yl]pyrido[3,4-b]pyrazin-3-yl}-1,3-oxazole], the pIC50 against GPR6 and on GPR3 was 4.52 to 6.00 throughout.
In the case of `CC(=O)N1CCc2nc(C3CCC(Oc4ccc(F)cc4F)CC3)c(-c3ncco3)nc2C1` (stereo not drawn) [Compound 302, 1-{2-[4-(2,4-difluorophenoxy)cyclohexyl]-3-(1,3-oxazol-2-yl)-5H,6H,7H,8H-pyrido[3,4-b]pyrazin-6-yl}ethan-1-one], the pIC50 against GPR6 and against GPR3 was 4.52 to 6.00 throughout.
As to `CC(=O)N1CCc2nc(C3=CCC(Oc4ccc(F)cc4F)CC3)c(-c3ncco3)nc2C1` (stereo not drawn) [Compound 303, 1-{2-[4-(2,4-difluorophenoxy)cyclohex-1-en-1-yl]-3-(1,3-oxazol-2-yl)-5H,6H,7H,8H-pyrido[3,4-b]pyrazin-6-yl}ethan-1-one], the pIC50 at GPR6 and at GPR3 was at most 4.52 throughout.
Regarding `Fc1ccc(OC2CC=C(c3nc4cnccc4nc3-c3ncco3)CC2)c(F)c1` (stereo not drawn) [Compound 304, 2-{3-[4-(2,4-difluorophenoxy)cyclohex-1-en-1-yl]pyrido[3,4-b]pyrazin-2-yl}-1,3-oxazole], the negative logarithm of the IC50 (pIC50) is 4.52 to 6.00 against GPR6 and at most 4.52 against GPR3.
In the case of `CCn1cc(-c2nc3c(nc2N2CCC(Oc4ccc(F)cc4F)CC2)CCN(C[C@H](O)CO)C3)cn1` [Compound 305, (2S)-3-{2-[4-(2,4-difluorophenoxy)piperidin-1-yl]-3-(1-ethyl-1H-pyrazol-4-yl)-5H,6H,7H,8H-pyrido[3,4-b]pyrazin-6-yl}propane-1,2-diol], the pIC50 was 6.00 to 7.00 on GPR6 and 4.52 to 6.00 against GPR3.
Take `CC(=O)N1CCc2nc(N3CCC(Oc4ccc(F)cc4F)CC3)c(C3=CCOC3)nc2C1` [Compound 306, 1-{2-[4-(2,4-difluorophenoxy)piperidin-1-yl]-3-(2,5-dihydrofuran-3-yl)-5H,6H,7H,8H-pyrido[3,4-b]pyrazin-6-yl}ethan-1-one]: the pIC50 against GPR6 was 6.00 to 7.00; against GPR3 it was 4.52 to 6.00.
As to `CCn1cc(-c2nc3cnc(C(O)C(C)(C)O)cc3nc2N2CCC(Oc3ccc(F)cc3F)CC2)cn1` (stereo not drawn) [Compound 307, 1-{2-[4-(2,4-difluorophenoxy)piperidin-1-yl]-3-(1-ethyl-1H-pyrazol-4-yl)pyrido[3,4-b]pyrazin-7-yl}-2-methylpropane-1,2-diol], the pIC50 is 6.00 to 7.00 on GPR6 and 4.52 to 6.00 against GPR3.
In the case of `COc1nc(-c2nc3c(nc2N2CCC(Oc4ccc(F)cc4F)CC2)CCN(C(C)=O)C3)cnc1Cl` [Compound 308], the pIC50 on GPR6 was above 7.00; at GPR3, 4.52 to 6.00.
`Cn1cc(-c2nc3cnc(C(O)CN)cc3nc2N2CCC(Oc3ccc(F)cc3F)CC2)cn1` (stereo not drawn) [Compound 309, 2-amino-1-(2-(4-(2,4-difluorophenoxy)piperidin-1-yl)-3-(1-methyl-1H-pyrazol-4-yl)pyrido[3,4-b]pyrazin-7-yl)ethan-1-ol]: the pIC50 against GPR6 was 6.00 to 7.00; against GPR3 it was 4.52 to 6.00.
`C=CC(=O)N1CCc2nc(N3CCC(Oc4ccc(F)cc4F)CC3)c(-c3cnn(CC)c3)nc2C1` [Compound 310, 1-{2-[4-(2,4-difluorophenoxy)piperidin-1-yl]-3-(1-ethyl-1H-pyrazol-4-yl)-5H,6H,7H,8H-pyrido[3,4-b]pyrazin-6-yl}prop-2-en-1-one]: the pIC50 at GPR6 is above 7.00; against GPR3 it was 4.52 to 6.00.
Turning to `CCn1cc(-c2nc3c(nc2N2CCC(Oc4ccc(F)cc4F)CC2)CCN(C(=O)CO)C3)cn1` [Compound 311, 1-{2-[4-(2,4-difluorophenoxy)piperidin-1-yl]-3-(1-ethyl-1H-pyrazol-4-yl)-5H,6H,7H,8H-pyrido[3,4-b]pyrazin-6-yl}-2-hydroxyethan-1-one], the pIC50 against GPR6 is above 7.00; against GPR3, 4.52 to 6.00.
As to `CCCn1cc(-c2nc3c(nc2N2CCC(Oc4ccc(F)cc4F)CC2)CCN(C(C)=O)C3)cn1` [Compound 312, 1-{2-[4-(2,4-difluorophenoxy)piperidin-1-yl]-3-(1-propyl-1H-pyrazol-4-yl)-5H,6H,7H,8H-pyrido[3,4-b]pyrazin-6-yl}ethan-1-one], the pIC50 against GPR6 is above 7.00; against GPR3, 4.52 to 6.00.
Consider `CCn1cc(-c2nc3cnc(C)cc3nc2N2CCC(Oc3ccc(F)cc3F)CC2)cn1` [Compound 313, 4-(2,4-difluorophenoxy)-1-[3-(1-ethyl-1H-pyrazol-4-yl)-7-methylpyrido[3,4-b]pyrazin-2-yl]piperidine], for which the pIC50 against GPR6 is 6.00 to 7.00; against GPR3, 4.52 to 6.00.
For `Cn1cc(-c2nc3cnc(C(=O)O)cc3nc2N2CCC(Oc3ccc(F)cc3F)CC2)cn1` [Compound 314, 2-[4-(2,4-difluorophenoxy)piperidin-1-yl]-3-(1-methyl-1H-pyrazol-4-yl)pyrido[3,4-b]pyrazine-7-carboxylic acid], the pIC50 at GPR6 and at GPR3 was 4.52 to 6.00 throughout.
